# Results from patent USRE37950E1, “Biogradable in-situ forming implants and methods of producing the same” (priority 1990, dated 2002).
# Assays:
# [1] = Release of drug from polymer/NMP formulation injected into dialysis tube, placed in pH 7 Sorenson's buffer receiving fluid at 37° C., UV at 237 nm; assay type: physicochemical; settings: for cumulative fraction of drug released: Example 1: 2% by weight SaCl dispersion in DL-PLA oligomer/NMP 68:32
# [2] = Concentration of SaCl in crevicular fluid from periodontal pocket of a greyhound dog (Periostrips, Periotron, liquid chromatograph); settings: other: inserted into the periodontal pocket
structure (smiles),measurement,setting,value
"C[n+]1cc2c3c(ccc2c2ccc4cc5c(cc4c21)OCO5)OCO3 [SaCl, Sanguinarine chloride]",cumulative fraction of drug released,[1]; after 2 days,~72%
same,cumulative fraction of drug released,[1]; after 5 days,~85%
same,cumulative fraction of drug released,[1]; after 9 days,~90%
same,cumulative fraction of drug released,[1]; after 14 days,~97%
same,cumulative fraction of drug released,[1]; first day,Approximately 60%
same,drug released,"[1]; Example 3: 1.5% by weight SaCl dispersion in 40% by weight poly(DL-lactide) (MW 2,000) in NMP, after 2 days",~40%
same,drug released,"[1]; Example 3: 1.5% by weight SaCl dispersion in 40% by weight poly(DL-lactide) (MW 2,000) in NMP, after 5 days",~45%
same,drug released,"[1]; Example 3: 1.5% by weight SaCl dispersion in 40% by weight poly(DL-lactide) (MW 2,000) in NMP, after 15 days",~50%
same,drug released,"[1]; Example 3: 1.5% by weight SaCl dispersion in 40% by weight poly(DL-lactide) (MW 2,000) in NMP, after the first day",approximately 32%
same,drug released,"[1]; Example 6: 2% by weight SaCl dispersion in 70% by weight 50:50 DL-PLG (MW 1500) in NMP, after 2 days",approximately 7%
same,drug released,"[1]; Example 6: 2% by weight SaCl dispersion in 70% by weight 50:50 DL-PLG (MW 1500) in NMP, after 5 days",~10%
same,drug released,"[1]; Example 6: 2% by weight SaCl dispersion in 70% by weight 50:50 DL-PLG (MW 1500) in NMP, after 7 days",~12%
same,drug released,"[1]; Example 6: 2% by weight SaCl dispersion in 70% by weight 50:50 DL-PLG (MW 1500) in NMP, after 14 days",~16%
same,concentration at 3 days,[2],63.2 µg/mL
same,concentration at 7 days,[2],80.2 µg/mL
same,concentration at 10 days,[2],67.8 µg/mL
same,concentration at 14 days,[2],70.5 µg/mL
"CCOC1c2c(ccc3c2OCO3)-c2ccc3cc4c(cc3c2N1C)OCO4 (stereo not shown) [SaEt, Ethoxydihydrosanguinarine]",drug released,"[1]; Example 2: SaEt dissolved in DL-PLA oligomer/NMP solution of Example 1, after 2 days",~52%
same,drug released,"[1]; Example 2: SaEt dissolved in DL-PLA oligomer/NMP solution of Example 1, after 5 days",~60%
same,drug released,"[1]; Example 2: SaEt dissolved in DL-PLA oligomer/NMP solution of Example 1, after 9 days",~70%
same,drug released,"[1]; Example 2: SaEt dissolved in DL-PLA oligomer/NMP solution of Example 1, after 14 days",~80%
same,drug released,"[1]; Example 2: SaEt dissolved in DL-PLA oligomer/NMP solution of Example 1, after the first day",approximately 45%
same,drug released,"[1]; Example 4: 1.5% by weight SaEt solution in 40% by weight DL-PLA (MW 2,000) in NMP, after 2 days",~14%
same,drug released,"[1]; Example 4: 1.5% by weight SaEt solution in 40% by weight DL-PLA (MW 2,000) in NMP, after 5 days",~20%
same,drug released,"[1]; Example 4: 1.5% by weight SaEt solution in 40% by weight DL-PLA (MW 2,000) in NMP, after 9 days",~23%
same,drug released,"[1]; Example 4: 1.5% by weight SaEt solution in 40% by weight DL-PLA (MW 2,000) in NMP, after 14 days",~28%
same,drug released,"[1]; Example 4: 1.5% by weight SaEt solution in 40% by weight DL-PLA (MW 2,000) in NMP, after the first day",approximately 8%
same,release rate,[1]; Example 7: 2% by weight SaEt solution in 70% by weight 50:50 DL-PLG in NMP,identical to that for SaCl described in Example 6
